In US20250099420A1, “SMALL MOLECULE MODULATORS OF GPR139 COMPLEX” (University of Florida Research Foundation, Incorporated, priority 2022, published 2025):
Where two headings read alike, the source gives them in different places.

Legend:
parental HEK cells = assay: HEK parental Agonist Counterscreen Assay (non-transfected cells); assay type: cell-based; conditions: for Averaged Max % Response (±St. Dev.): activity relative to known control
From the text: The high control for the agonist counterscreen was Forskolin not acetylcholine.

GPR139 = target: T1, GPR139 (Homo sapiens, UniProt Q6DWJ6); assay: GPR139 Agonist titration / agonist counterscreen assay (calcium detection, HEK-GPR139 cells); assay type: cell-based; parameters: expressed in transfected cells; host or cells: HEK Aequorin cells, Maxcyte transient transfection; conditions: GPR139 Agonist Activity; for Averaged Max % Response (±St. Dev.): activity relative to known control; for EC50: read-out: EC50
T1 sequence (Q6DWJ6 1-353): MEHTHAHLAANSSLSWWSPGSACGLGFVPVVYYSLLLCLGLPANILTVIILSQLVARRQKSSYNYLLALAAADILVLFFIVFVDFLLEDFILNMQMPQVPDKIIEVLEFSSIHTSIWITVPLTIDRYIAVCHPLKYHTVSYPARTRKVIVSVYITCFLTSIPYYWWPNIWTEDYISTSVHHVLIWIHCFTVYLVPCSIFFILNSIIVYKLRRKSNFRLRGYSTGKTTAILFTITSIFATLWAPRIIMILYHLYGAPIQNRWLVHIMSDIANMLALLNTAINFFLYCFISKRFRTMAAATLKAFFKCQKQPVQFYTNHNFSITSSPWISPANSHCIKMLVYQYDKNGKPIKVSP
Method: GPR activity was assessed using a calcium detection assay. […] Negative control samples were treated with DMSO. […] Intracellular calcium was measured using Calcium 5.

[1] = Homo sapiens, HEK293, HEK Agonist Activity section of Table 4 (parental HEK counterscreen)
[2] = values printed in E-notation without unit
[3] = HEK Agonist Activity section of Table 4 (parental HEK counterscreen)
[4] = Homo sapiens, HEK293, HEK Agonist Activity, parental non-transfected HEK cells

SMILES	Lipophilic Efficiency (logD) (parental HEK cells; HEK Agonist Activity section)	Lipophilic Efficiency (logP) (parental HEK cells; HEK Agonist Activity section)	Averaged Max % Response (±St. Dev.) (parental HEK cells; HEK Agonist Activity section)	EC50 (parental HEK cells; [1])	Averaged Max % Response (±St. Dev.) (GPR139)	Lipophilic Efficiency (logD) (GPR139; based on logD)	Lipophilic Efficiency (logP) (GPR139; based on logP)	Hill Slope (GPR139; fitted dose-response curve)	Efficiency Ligand (GPR139; ligand efficiency)	EC50 (GPR139; [2])	EC50 (parental HEK cells; [3])	Efficiency Ligand (GPR139)	Hill Slope (GPR139)	Lipophilic Efficiency (logD) (GPR139)	Lipophilic Efficiency (logP) (GPR139)	EC50 (GPR139; HEK-GPR139 cells)	Lipophilic Efficiency (logD) (parental HEK cells; HEK Agonist Activity)	Lipophilic Efficiency (logP) (parental HEK cells; HEK Agonist Activity)	Averaged Max % Response (±St. Dev.) (parental HEK cells; HEK Agonist Activity)	EC50 (parental HEK cells; [4])
O=C(CC1Nc2ccccc2NC1=O)NCC1COc2ccccc2O1 (centres unmarked) [SR-01000146516]	3.75	3.75	−2.96 ± 7.51%	> 14.1 µM	88.18 ± 13.52%	5.60	5.60	0.77	0.36	196 nM	–	–	–	–	–	–	–	–	–	–
Cc1ccc(CN2CCN(CC(=O)N3CC(C)CC(C)C3)C2=O)cc1 (centres unmarked) [SR-01000150389]	2.56	2.56	0.25 ± 10.83%	–	112.97 ± 21.84%	4.43	4.43	0.95	0.38	189 nM	> 14.1 µM	–	–	–	–	–	–	–	–	–
CCN(CCCNC(=O)CN1CCC(Cc2ccccc2C)C1=O)c1cccc(C)c1 (centres unmarked) [SR-01000150393]	1.45	1.43	10.10 ± 9.60%	> 14.1 µM	97.57 ± 16.88%	3.55	3.54	1.18	0.31	–	–	–	–	–	–	–	–	–	–	–
O=C(CC1CCN(Cc2ccccc2O)C1=O)C1CCC(c2cccc(O)c2)C(O)C1 (centres unmarked) [SR-01000151350]	1.47	1.47	12.46 ± 7.98%	> 14.1 µM	101.74 ± 19.26%	–	–	–	–	–	–	0.29	1.51	3.10	3.10	328 nM	–	–	–	–
Cc1ccc(CC2CCC(CC(=O)CC3CCCCCCC3)C2=O)cc1 (centres unmarked) [SR-01000151470]	1.44	1.44	−9.17 ± 11.99%	> 14.1 µM	78.27 ± 16.46%	–	–	–	–	–	–	0.31	1.14	2.62	2.62	–	–	–	–	–
O=C(CCc1nc2cccnc2n1Cc1cccs1)NCc1ccc2c(c1)OCO2 [SR-01000151666]	1.87	1.87	−3.95 ± 11.76%	> 14.1 µM	107.14 ± 25.50%	4.24	4.24	0.74	0.34	60.3 nM	–	–	–	–	–	–	–	–	–	–
O=C(Cn1nc(Cc2ccncc2)c2ccccc2c1=O)N1CCCc2ccccc21 [SR-01000151917]	1.92	1.92	10.70 ± 4.71%	> 14.1 µM	110.81 ± 5.15%	–	–	–	–	–	–	0.28	1.73	3.34	3.33	537 nM	–	–	–	–
O=C(Cn1ncc2c1-c1ccccc1OC2)Nc1ccc(Cl)cc1 [SR-01000152099]	2.23	2.23	29.06 ± 12.18%	> 14.1 µM	112.22 ± 29.96%	–	–	–	–	–	–	0.36	0.62	3.61	3.61	589 nM	–	–	–	–
Cc1cccnc1NC(=O)Cn1ncc2c1-c1ccccc1OC2 [SR-01000152365]	2.49	2.49	18.44 ± 8.07%	–	96.01 ± 17.34%	4.77	4.77	0.99	0.42	73 nM	> 14.1 µM	–	–	–	–	–	–	–	–	–
Cc1ccc2c(c1)-c1c(cnn1CC(=O)Nc1ccccn1)CO2 [SR-01000152429]	2.49	2.49	−0.18 ± 21.55%	–	109.51 ± 16.91%	4.53	4.53	1.07	0.40	128 nM	> 14.1 µM	–	–	–	–	–	–	–	–	–
CC(NC(=O)Cn1ncc2ccccc21)c1ccc2c(c1)OCCO2 (centres unmarked) [SR-01000152760]	2.88	2.88	0.48 ± 8.40%	–	85.23 ± 10.03%	4.79	4.79	0.63	0.38	174 nM	> 14.1 µM	–	–	–	–	–	–	–	–	–
Cc1cc(=O)n2nc(NCc3ccccc3Cl)nc2[nH]1 [SR-01000153886]	2.16	2.16	−3.87 ± 9.73%	> 14.1 µM	90.96 ± 29.33%	–	–	–	–	–	–	0.41	2.51	3.22	3.22	1200 nM	–	–	–	–
O=c1c2c([nH]c3nc(NCc4ccccc4Cl)nn13)CCC2 [SR-01000153956]	1.70	1.70	21.15 ± 4.99%	> 14.1 µM	93.85 ± 32.13%	–	–	–	–	–	–	0.38	1.89	2.80	2.80	1100 nM	–	–	–	–
Cc1cc(C)c2c(cnn2CC(=O)N2CCc3ccccc3C2)c1 [SR-01000154995]	1.52	1.52	41.69 ± 44.54%	–	88.51 ± 8.87%	–	–	–	–	–	> 14.1 µM	0.36	1.08	2.91	2.91	572 nM	–	–	–	–
O=C(Cn1ncc2c(Cl)cccc21)NCCc1ccc(Cl)cc1 [SR-01000155030]	1.32	1.32	10.75 ± 8.11%	> 14.1 µM	113.63 ± 16.89%	3.06	3.06	0.65	0.40	252 nM	–	–	–	–	–	–	–	–	–	–
CC(NC(=O)Cn1ncc2c(Cl)cccc21)c1ccc2c(c1)OCCO2 (centres unmarked) [SR-01000155068]	–	–	–	–	127.51 ± 13.72%	5.00	5.00	0.58	0.41	26.7 nM	–	–	–	–	–	–	2.28	2.28	−2.13 ± 1.88%	> 14.1 µM
CC1CCC(NC(=O)CCC(=O)N2CCSc3ccccc32)CC1 (centres unmarked) [SR-01000159110]	–	–	–	–	95.57 ± 19.71%	5.19	5.19	1.18	0.45	16.1 nM	–	–	–	–	–	–	2.25	2.25	3.44 ± 10.60%	> 14.1 µM
CC(C)CCNC(=O)CN1CCN(Cc2ccc(F)cc2Cl)C1=O [SR-01000161248]	2.51	2.51	−6.23 ± 14.84%	–	106.33 ± 15.91%	–	–	–	–	–	> 14.1 µM	0.38	1.12	4.17	4.17	309 nM	–	–	–	–
Cc1ccccc1-c1nnc(CN2CCc3ccccc3C2)o1 [SR-01000162178]	1.73	1.58	25.44 ± 6.84%	> 14.1 µM	112.85 ± 32.26%	–	–	–	–	–	–	0.40	1.13	3.44	3.29	272 nM	–	–	–	–
